According to patent US8937062B2, “Compositions and methods for treating, reducing, ameliorating, or preventing infections caused by antibacterial drug-resistant bacteria” (Bausch & Lomb Incorporated, priority 2007, dated 2015):
Values after ≈ are worked out from the molar mass of the structure shown. Where two headings read alike, the source gives them in different places.

How the values were obtained:
Type in all cases: cell-based
[1] = test system: OFLX-resistant Enterobacteriaceae; assay: MIC90, agar plate dilution method (NCCLS), Table 2
Method: (§1) The MIC90 values for this test were determined by the agar plate dilution method according to the National Committee for Clinical Laboratory Standards (“NCCLS”).

[2] = test system: APC-resistant Haemophilus influenza.; assay: MIC90, agar plate dilution method (NCCLS), Table 2; conditions: for MIC90: Haemophilus
Method: as §1

OFLX-resistant S. aureus = assay: MIC90, agar plate dilution method (NCCLS), Table 2; conditions: Staphylococcus aureus, 10 isolates, read-out: MIC90 Geometric Mean
Method: as §1

[3] = test system: GM-resistant P. aeruginosa; assay: MIC90, agar plate dilution method (NCCLS), Table 2; conditions: 10 isolates
Method: as §1

GM-resistant S. aureus = assay: MIC90, agar plate dilution method (NCCLS), Table 2; conditions: Staphylococcus aureus, 10 isolates, read-out: MIC90 Geometric Mean
Method: as §1

[4] = test system: PCG-resistant S. pneumoniae; assay: MIC90, agar plate dilution method (NCCLS), Table 2; conditions: 10 isolates
Method: as §1

[5] = test system: S. pneumoniae Clinical Isolates; assay: In vitro activity against clinical isolates, sixth test, Table 7; conditions: 78 isolates; for MIC90: Streptococcus pneumoniae
[6] = test system: H. influenzae, β-lactamase positive, ampicillin-resistant; assay: MIC90, broth microdilution (CLSI M7-A7), Table 4; conditions: 25 isolates; for MIC90: Haemophilus influenzae
Method: (§2) The MIC90 values were determined according to the broth microdilution method outlined in the Clinical and Laboratory Standards Institute Approved Standard M7-A7 (2006).

[7] = test system: S. aureus, methicillin- and ciprofloxacin-resistant; assay: MIC90, broth microdilution (CLSI M7-A7), Table 4; conditions: Staphylococcus aureus, 24 isolates
Method: as §2

[8] = test system: H. influenzae, β-lactamase positive; assay: MIC90, broth microdilution (CLSI M7-A7), Table 4; conditions: 53 isolates; for MIC90: Haemophilus influenzae
Method: as §2

[9] = test system: S. aureus, vancomycin-resistant; assay: MIC90, broth microdilution (CLSI M7-A7), Table 4; conditions: Staphylococcus aureus, 3 isolates, read-out: MIC90 Geometric Mean
Method: as §2

[10] = test system: E. cloacae, extended-spectrum β-lactamase positive; assay: MIC90, broth microdilution (CLSI M7-A7), Table 4; conditions: Enterobacter cloacae, 15 isolates
Method: as §2

[11] = test system: S. aureus, vancomycin-intermediately resistant; assay: MIC90, broth microdilution (CLSI M7-A7), Table 4; conditions: Staphylococcus aureus, 23 isolates
Method: as §2

[12] = test system: S. pneumoniae, penicillin-resistant; assay: MIC90, broth microdilution (CLSI M7-A7), Table 4; conditions: 26 isolates; for MIC90: Streptococcus pneumoniae
Method: as §2

[13] = test system: S. aureus, methicillin-resistant and ciprofloxacin-sensitive; assay: MIC90, broth microdilution (CLSI M7-A7), Table 4; conditions: 25 isolates; for MIC90: Staphylococcus aureus
Method: as §2

[14] = test system: S. pneumoniae, levofloxacin-resistant; assay: MIC90, broth microdilution (CLSI M7-A7), Table 4; conditions: Streptococcus pneumoniae, 25 isolates
Method: as §2

[15] = test system: S. pneumoniae, penicillin-intermediately resistant; assay: MIC90, broth microdilution (CLSI M7-A7), Table 4; conditions: Streptococcus pneumoniae, 26 isolates
Method: as §2

[16] = test system: S. epidermidis, methicillin-resistant; assay: MIC90, broth microdilution (CLSI M7-A7), Table 4; conditions: Staphylococcus epidermidis, 64 isolates
Method: as §2

[17] = test system: S. aureus Clinical Isolates; assay: In vitro activity against clinical isolates, sixth test, Table 7; conditions: Staphylococcus aureus, 49 isolates

| MIC90 Range [5] | MIC90 [5] | MIC90 Range [6] | MIC90 ([6]; read-out: MIC90 Geometric Mean) | MIC90 ([6]; read-out: MIC90 Value) | MIC90 ([7]; read-out: MIC90 Geometric Mean) | MIC90 ([7]; read-out: MIC90 Value) | MIC90 ([8]; read-out: MIC90 Geometric Mean) | MIC90 ([8]; read-out: MIC90 Value) | MIC90 [9] | MIC90 ([10]; read-out: MIC90 Geometric Mean) | MIC90 ([10]; read-out: MIC90 Value) | MIC90 ([11]; read-out: MIC90 Geometric Mean) | MIC90 ([11]; read-out: MIC90 Value) | MIC90 Range [12] | MIC90 ([12]; read-out: MIC90 Geometric Mean) | MIC90 ([12]; read-out: MIC90 Value) | MIC90 Range [13] | MIC90 ([13]; read-out: MIC90 Geometric Mean) | MIC90 ([13]; read-out: MIC90 Value) | Structure (SMILES) | further results |
| --- | --- | --- | --- | --- | --- | --- | --- | --- | --- | --- | --- | --- | --- | --- | --- | --- | --- | --- | --- | --- | --- |
|  |  |  |  |  |  |  |  |  |  |  |  |  |  |  |  |  |  |  |  | O=C(O)c1cn(C2CC2)c2cc(N3CCNCC3)c(F)cc2c1=O [CPLX, ciprofloxacin] | MIC90 Range ([1]; OFLX-resistant Enterobacteriaceae, 10 isolates): 4 to 32 µg/mL; MIC90 ([1]; read-out: MIC90 Geometric Mean): 10.6 µg/mL (≈ 32 µM); MIC90 Range ([2]; APC-resistant Haemophilus influenza., 10 isolates): ≦0.06 μg/ml; MIC90 ([2]; read-out: MIC90 Geometric Mean): ≤ 0.06 µg/mL; MIC90 ([2]; read-out: MIC90 Value): ≤ 0.06 µg/mL; MIC90 (OFLX-resistant S. aureus): 147 µg/mL (≈ 444 µM); MIC90 Range [3]: 0.13 to 32 µg/mL; MIC90 ([3]; Pseudomonas aeruginosa, read-out: MIC90 Geometric Mean): 1.87 µg/mL (≈ 5.64 µM); MIC90 (GM-resistant S. aureus): 26 µg/mL (≈ 78.5 µM); MIC90 Range [4]: 0.5 to 2 µg/mL |
| 0.12 to 0.5 µg/mL | 0.25 µg/mL (≈ 0.666 µM) | 0.008 to 0.06 µg/mL | 0.022 µg/mL (≈ 0.0586 µM) | 0.03 µg/mL (≈ 0.0799 µM) | > 8 µg/mL | > 8 µg/mL | 0.014 µg/mL (≈ 0.0373 µM) | 0.03 µg/mL (≈ 0.0799 µM) | 6.35 µg/mL (≈ 16.9 µM) | 1.58 µg/mL (≈ 4.21 µM) | > 8 µg/mL | 3.65 µg/mL (≈ 9.72 µM) | 8 µg/mL (≈ 21.3 µM) | 0.12 to 0.5 µg/mL | 0.293 µg/mL (≈ 0.781 µM) | 0.5 µg/mL (≈ 1.33 µM) | 0.03 to 8 µg/mL | 0.099 µg/mL (≈ 0.264 µM) | 0.12 µg/mL (≈ 0.32 µM) | COc1c(N2CCNC(C)C2)c(F)cc2c(=O)c(C(=O)O)cn(C3CC3)c12 (stereo not shown) [GTFX, gatifloxacin] | MIC90 ([14]; read-out: MIC90 Geometric Mean): 5.43 µg/mL (≈ 14.5 µM); MIC90 ([14]; read-out: MIC90 Value): > 8 µg/mL; MIC90 ([15]; read-out: MIC90 Geometric Mean): 0.344 µg/mL (≈ 0.916 µM); MIC90 ([15]; read-out: MIC90 Value): 0.5 µg/mL (≈ 1.33 µM); MIC90 ([16]; read-out: MIC90 Geometric Mean): 1.43 µg/mL (≈ 3.8 µM); MIC90 ([16]; read-out: MIC90 Value): > 8 µg/mL; MIC90 [17]: 2 µg/mL (≈ 5.33 µM) |
| 0.5 to 2 µg/mL | 1 µg/mL (≈ 2.77 µM) |  |  |  |  |  |  |  |  |  |  |  |  |  |  |  |  |  |  | C[C@H]1COc2c(N3CCN(C)CC3)c(F)cc3c(=O)c(C(=O)O)cn1c23 [LVFX, levofloxacin] | MIC90 [17]: 4 µg/mL (≈ 11.1 µM) |
| 0.06 to 0.25 µg/mL | 0.12 µg/mL (≈ 0.299 µM) | 0.015 to 0.12 µg/mL | 0.047 µg/mL (≈ 0.117 µM) | 0.12 µg/mL (≈ 0.299 µM) | 6.92 µg/mL (≈ 17.2 µM) | > 8 µg/mL | 0.03 µg/mL (≈ 0.0747 µM) | 0.06 µg/mL (≈ 0.149 µM) | 6.35 µg/mL (≈ 15.8 µM) | 2.75 µg/mL (≈ 6.85 µM) | > 8 µg/mL | 2.69 µg/mL (≈ 6.7 µM) | 8 µg/mL (≈ 19.9 µM) | 0.06 to 0.25 µg/mL | 0.217 µg/mL (≈ 0.541 µM) | 0.25 µg/mL (≈ 0.623 µM) | 0.015 to 8 µg/mL | 0.057 µg/mL (≈ 0.142 µM) | 0.12 µg/mL (≈ 0.299 µM) | COc1c(N2C[C@@H]3CCCN[C@@H]3C2)c(F)cc2c(=O)c(C(=O)O)cn(C3CC3)c12 [MOFX, moxifloxacin] | MIC90 Range [8]: 0.015 to 0.06 µg/mL; MIC90 ([14]; read-out: MIC90 Geometric Mean): 3.68 µg/mL (≈ 9.17 µM); MIC90 ([14]; read-out: MIC90 Value): > 8 µg/mL; MIC90 ([15]; read-out: MIC90 Geometric Mean): 0.209 µg/mL (≈ 0.521 µM); MIC90 ([15]; read-out: MIC90 Value): 0.25 µg/mL (≈ 0.623 µM); MIC90 ([16]; read-out: MIC90 Geometric Mean): 1.12 µg/mL (≈ 2.8 µM); MIC90 ([16]; read-out: MIC90 Value): > 8 µg/mL |
